Source: ChEMBL document CHEMBL1201862, “PubChem BioAssay data set” (2004)
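Assay format: 96-well plates, 48-hour exposure. Abbreviation: GI50, concentration required for 50% inhibition of growth.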 The source made the active and inactive calls. Rule as the data show it: active = GI50 up to about 1.1 µM and inactive = higher.

What was measured:
Assay in all cases: DTP human tumour cell line panel, 48 h
TK-10 = system: TK-10
NCI-H522 = system: NCI-H522
U-251 = system: U-251
MOLT-4 = system: MOLT-4
NCI-H23 = system: NCI-H23
A549 = system: A549
SF-539 = system: SF-539
HL-60 = system: HL-60
OVCAR-3 = system: OVCAR-3
RPMI-8226 = system: RPMI-8226
LOX IMVI = system: LOX IMVI
M14 = system: M14
NCI-H460 = system: NCI-H460
HCT-15 = system: HCT-15
SNB-19 = system: SNB-19
CAKI-1 = system: CAKI-1

| SMILES | GI50 (TK-10) | GI50 (NCI-H522) | GI50 (U-251) | GI50 (MOLT-4) | GI50 (NCI-H23) | GI50 (A549) | GI50 (SF-539) | GI50 (HL-60) | GI50 (OVCAR-3) | GI50 (RPMI-8226) | GI50 (LOX IMVI) | GI50 (M14) | GI50 (NCI-H460) | GI50 (HCT-15) [µM] | GI50 (SNB-19) | GI50 (CAKI-1) |
| --- | --- | --- | --- | --- | --- | --- | --- | --- | --- | --- | --- | --- | --- | --- | --- | --- |
| COC(=O)N/N=C(\C)CC(=O)Nc1cccc([N+](=O)[O-])c1 | > 100 µM (inactive) | > 100 µM (inactive) | > 100 µM (inactive) | > 100 µM (inactive) | > 100 µM (inactive) | > 100 µM (inactive) | > 100 µM (inactive) | > 100 µM (inactive) | > 100 µM (inactive) | > 100 µM (inactive) | > 100 µM (inactive) | > 100 µM (inactive) | > 100 µM (inactive) | – | – | – |
| CC1=N/C(=C\c2cccc([N+](=O)[O-])c2)C(=O)O1 | > 100 µM (inactive) | > 100 µM (inactive) | > 100 µM (inactive) | > 100 µM (inactive) | > 100 µM (inactive) | > 100 µM (inactive) | > 100 µM (inactive) | > 100 µM (inactive) | – | > 100 µM (inactive) | – | > 100 µM (inactive) | > 100 µM (inactive) | > 100 | > 100 µM (inactive) | – |
| COC(=O)C(CC(=O)Nc1ccc(C)cc1)C(=O)C(=O)Nc1c(C(C)C)cccc1C(C)C (stereo not drawn) | > 100 µM (inactive) | > 100 µM (inactive) | > 100 µM (inactive) | > 100 µM (inactive) | > 100 µM (inactive) | > 100 µM (inactive) | > 100 µM (inactive) | > 100 µM (inactive) | – | > 100 µM (inactive) | > 100 µM (inactive) | > 100 µM (inactive) | > 100 µM (inactive) | 48.6 | > 100 µM (inactive) | > 100 µM (inactive) |
| COc1ccc(CCn2c(=O)c3ccccc3n(C)c2=O)cc1 | 54.8 µM (inactive) | 24.2 µM (inactive) | 66.8 µM (inactive) | 33.8 µM (inactive) | 48.6 µM (inactive) | 50.9 µM (inactive) | 41.6 µM (inactive) | – | 34.4 µM (inactive) | 39 µM (inactive) | – | 26.1 µM (inactive) | 60.1 µM (inactive) | – | > 100 µM (inactive) | 38.5 µM (inactive) |
| COc1cc(C(N)=O)c(OC)c(OC)c1OC | > 100 µM (inactive) | > 100 µM (inactive) | > 100 µM (inactive) | > 100 µM (inactive) | > 100 µM (inactive) | > 100 µM (inactive) | > 100 µM (inactive) | > 100 µM (inactive) | > 100 µM (inactive) | > 100 µM (inactive) | > 100 µM (inactive) | > 100 µM (inactive) | > 100 µM (inactive) | > 100 | > 100 µM (inactive) | – |
| NC(=S)N/N=C1\C(=O)N(c2cccc([N+](=O)[O-])c2)C(=O)C1C(=O)Nc1cccc([N+](=O)[O-])c1 (stereo not drawn) | > 100 µM (inactive) | > 100 µM (inactive) | > 100 µM (inactive) | > 100 µM (inactive) | > 100 µM (inactive) | > 100 µM (inactive) | > 100 µM (inactive) | 38.4 µM (inactive) | > 100 µM (inactive) | > 100 µM (inactive) | > 100 µM (inactive) | > 100 µM (inactive) | – | > 100 | > 100 µM (inactive) | > 100 µM (inactive) |
| Nc1c(S(=O)(=O)c2ccc(Cl)cc2)c2nc3ccccc3nc2n2ccnc12 | 24.9 µM (inactive) | 53.7 µM (inactive) | 61.8 µM (inactive) | > 100 µM (inactive) | > 100 µM (inactive) | 85.9 µM (inactive) | 17.4 µM (inactive) | 30.1 µM (inactive) | > 100 µM (inactive) | > 100 µM (inactive) | – | > 100 µM (inactive) | 63.4 µM (inactive) | > 100 | 48.5 µM (inactive) | – |
| O=C(Cc1nc2ccccc2c(=O)n1-c1ccccc1Cl)c1ccncc1 | > 100 µM (inactive) | > 100 µM (inactive) | > 100 µM (inactive) | > 100 µM (inactive) | > 100 µM (inactive) | > 100 µM (inactive) | > 100 µM (inactive) | 37.6 µM (inactive) | > 100 µM (inactive) | – | > 100 µM (inactive) | > 100 µM (inactive) | > 100 µM (inactive) | > 100 | > 100 µM (inactive) | > 100 µM (inactive) |
